Test results as given in patent US11840551B2, “Compositions and methods of modulating the immune response by activating alpha protein kinase 1” (Shanghai Yao Yuan Biotechnology Co., Ltd., priority 2017, dated 2023).
Blank lines part the entries; values can stand above or below the compound they belong to.

Experiments:
[1] = test system: CT26 cells; test: CT26 tumor xenograft model, tumor growth (tumor volume); format: in vivo, BALB/c mice; settings: Example 18, FIG. 30; 50 nmol, injections at days 7, 9, 11
Protocol: We used a CT26 tumor xenograft model to test the anti-cancer activity of H1b-ADP. Tumor cells (2×10^5 per 100 uL CT26 cells) were inoculated subcutaneously into the right flank of BALB/c mice. At day 6, mice whose tumors had reached 3-5 mm in diameter were randomized and grouped into three groups (n=8 each group), control, HMP-1bP (580 ug), and H1b-ADP (1.2 ug). Injections were performed using a total volume of 20 uL at days 6, 8, 10, 12, and 14 post inoculation. Tumor volumes were calculated every 2 days from caliper measurements of tumor dimension using the formula (L×W^2)/2, where L is the longer measurement.
To test whether H1b-ADP could augment an anti-tumor response by a checkpoint inhibitor, we tested the effects of co-administration with an anti-PD1 antibody. Tumor cells (2×10^5 per 100 μL CT26 cells) were inoculated subcutaneously into the left and right flanks of BALB/c mice. At day 7, mice whose tumors had reached 5 mm in diameter were randomized and grouped (n=8 each group) into the following four groups: anti-PD1 antibody; rat IgG; H1b-ADP+rat IgG; H1b-ADP+anti-PD1 antibody. We utilized RMP1-14 as the anti-PD1 antibody (10 mg/kg) and a rat IgG 2a (2A3) as the control IgG. Each of the anti-PD-1 antibody and the control IgG was administered intraperitoneally in a 200 μL volume on days 6, 10, 12, and 17 post-inoculation. H1b-ADP (6.2 μg) was intratumorally injected in a 20 μL volume at day 6, 8, 10, 12, and 15. Tumor volumes were calculated every 2 days from caliper measurements of tumor dimensions using the formula (L×W^2)/2, where L is the longer measurement. The results are shown in FIG. 13A for injected tumors and FIG. 13B for distant tumors. […]
The experiment was carried out as combo experiments of anti-PD1 except for the following variations. At day 6, mice whose tumors had reached 5 mm in diameter were randomized and grouped into the following four groups: anti-CTLA-4 antibody; rat IgG; H1b-ADP+rat IgG; H1b-ADP+anti-CTLA-4 antibody. We utilized 9D9 (BioxCell) as the anti-CTLA-4 antibody and a rat IgG 2b isotype (MPC-11 clone, BE0086, BioXCell) as the control IgG. Each of the anti-CTLA-4 antibody (25 μg) and the control IgG (25 μg) was administered intraperitoneally in a 200 μL volume on days 6 and 9 post-inoculation. H1b-ADP (6.2 μg) was administered intratumorally in a 20 μL volume on days 6, 7, 9, 11 post-inoculation.
The experiment was carried out as combo experiments of anti-PD1 except for the following variations. At day 6, mice whose tumors had reached 5 mm in diameter were randomized and grouped into the following four groups: c-di-AM(PS)2; PBS; H1b-ADP; H1b-ADP+c-di-AM(PS)2. We utilized c-di-AM(PS)2 as the STING agonist. […]

[2] = test system: Cxcl1, Cxcl11, IL1b, and IL6 in mouse liver and lung tissue; test: Tissue expression of chemokines and cytokines after subcutaneous injection (qPCR); format: in vivo, C57 mice; settings: subcutaneous, 2, 10, 50, 200 nmol tested, tissue harvested three hours later
Protocol: In additional experiments, Compound 1 was injected subcutaneously into 7 week old C57 mice at concentrations of 2, 10, 50, and 200 nmol. Tissue was harvested three hours later and RNA extracted. Quantitative PCR (qPCR) was performed to determine the tissue expression levels Cxcl1, Cxcl11, IL1b, and IL6 in mouse liver (FIG. 32A) and lung (FIG. 32B) tissue. Additional chemokines and cytokines were assayed in the lung tissue.

[3] = molecular target: T1, ALPK1 (Homo sapiens, UniProt Q96QP1); test: IL8 secretion in HEK293 cells (IL8 ELISA) as indicator of ALPK1 activation; settings: for IL8 secretion in HEK293 cells: without FBS, serial dilutions, 4 hours; for restoration of H1b-ADP's activity in the cell based assay (IL8 secretion): added to the FBS-containing medium, HEK293 cells
Protocol: Phosphatase such as the alkaline phosphatase may be responsible for H1b-ADP hydrolysis. We pre-mixed H1b-ADP with phosphatase inhibitor sodium orthovanadate (Na3VO4) before incubation with FBS. […] We hypothesized that the accumulation of hydrolysis product AMP can inhibit phosphatase activity.
A number of H1b-ADP derivative compounds were made as described herein and tested for biological activity as agonists of ALPK1 in vitro. In these experiments, serial dilutions of the compounds were added to the tissue culture media of HEK293 cells with (FIG. 27B, FIG. 28B, FIG. 29B) or without (FIG. 26, FIG. 27A, FIG. 28A, FIG. 29A) 10% FBS, as indicated in the figures. After 4 hours, the cell supernatant was collected and analyzed for IL8 concentration using IL8 ELISA (BD) as an indicator of ALPK1 activation.

[4] = test system: bovine alkaline phosphatase; test: Incubation of H1b-ADP with bovine alkaline phosphatase; format: biochemical; settings: H1b-ADP incubated with bovine alkaline phosphatase, increasing amount of Na3VO4
Text: (§1) FBS contains 110-352 μU/ml alkaline phosphatase.

[5] = test system: phosphatase activity in the serum; test: Incubation of H1b-ADP with FBS, product analysed by LC-MS; format: in vitro ADME, bovine
Text: as §1

[6] = molecular target: T1, ALPK1; test: Thermal shift assay (SYPRO Orange) for binding to ALPK1; settings: ALPK1 7 uM; 1, 5, 25, 125 uM compound; H1b-ADP shift at 5, 25 and 125 uM
Text: The thermal shift assay is widely used to determine the binding of a molecule to a protein of interest. The assay is based on the increase in thermal energy required for denaturation of a protein where another molecule is bound to the protein. SYPRO Orange is a fluorescent compound used in the detection of thermal shift. SYPRO Orange binds to hydrophobic surfaces of the protein, and water strongly quenches its fluorescence. When the protein unfolds, the exposed hydrophobic surfaces bind the dye, resulting in an increase in fluorescence. When another molecule is bound to the protein, an increase in the temperature required for unfolding of the protein is observed.
This assay system was used to determine whether or not chemically synthesized HBP, HMP-1bP, and H1b-ADP directly bind to ALPK1. […] Only H1b-ADP induced a shift of more than 1 degree, at each of the three highest concentrations tested, 5 uM, 25 uM, and 125 uM.

[7] = molecular target: T1, ALPK1; test: In vitro kinase assay of ALPK1-dependent TIFA phosphorylation; format: biochemical; settings: FIG. 7, chemically-synthesized compounds
Protocol: We performed an in vitro kinase assay with H1b-ADP and H1b-ADP-6L along with ALPK1 protein (2 nM), and TIFA protein (1.6 uM) in kinase buffer containing 50 uM ATP. TIFA phosphorylation was analyzed by denaturing gel electrophoresis followed by western blotting using an anti-phosphothreonine antibody. H1b-ADP or H1b-ADP-6L was added at 2 nM, 0.4 nM, 80 pM, 16 pM, and 3 pM.
To test this, we performed an in vitro kinase reaction for ALPK1-dependent TIFA phosphorylation in the presence of either HBP or HIdA purified from E. coli containing inactivated HIdE, or in the presence of HBP and HIdA purified from the same HIdE wild-type E. coli used in the previous experiments. Phosphorylated TIFA (three concentrations, 1%, 0.2% and […]) was detected as described above by denaturing gel electrophoresis followed by Western analysis.

[8] = molecular target: T1, ALPK1; test: Cell-free kinase assay of ALPK1 autophosphorylation (Western, anti-phospho-threonine); format: biochemical; settings: 2 nM ALPK1 with ATP, 25° C., 1 h; H1b-ADP 10, 1, 0.2 nM; HBP and HMP-1bP 1, 10, 100 nM
Protocol: ALPK1 activation results in its autophosphorylation. Accordingly, we next asked whether the binding of H1b-ADP to ALPK1 was sufficient to induce ALPK1 autophosphorylation. Phosphorylation assays were performed according to standard protocols. Briefly, ALPK1 was incubated (2 nM, 25° C., 1 h) in assay buffer (20 μl, 25 mM HEPES pH 7.5, 50 mM KCl, 0.1 mM EDTA, 0.1 mM EGTA, 2 mM DTT, 1.5 mM CaCl2, 10 mM MgCl2) with ATP and chemically synthesized HBP, HMP-1bP, or H1b-ADP followed by denaturing gel electrophoresis and Western analysis with an anti-phospho-threonine antibody (CST) to detect autophosphorylation of ALPK1. […] The range of concentrations of HBP and HMP-1bP used in this assay (1 nM, 10 nM, 100 nM) was 10-fold higher than that used for H1b-ADP.

[9] = molecular target: T1, ALPK1; test: IL-8 and TNFα mRNA expression in HEK293 cells with control or ALPK1-directed siRNA (qPCR); format: cell-based; set-up: silence ALPK1 expression in HEK293 cells; endogenous in cells; host or cells: HEK293; settings: control vs ALPK1-directed siRNA, 4 hours, HBP 500, 100, 20 uM, HMP-1bP 500, 100 uM, H1b-ADP 100, 20, 4, 0.8 nM
Protocol: To test whether HBP, HMP-1bP, and H1b-ADP were able to induce cytokine expression in an ALPK1 dependent manner, we used an ALPK1-directed small interfering RNA (siRNA) to silence ALPK1 expression in HEK293 cells. Cells were plated (1×10^4 cells/well) into 96-well plates and transfected with either control siRNA or ALPK1-directed siRNA according to the manufacturer's protocols (Lipofectamine™ RNAiMax™, Invitrogen 13778075). Following 2 days of culture, either (1) HBP (500 uM, 100 uM, 20 uM, FIG. 2A-2B) (2) HMP-1bP (500 uM, 100 uM, FIG. 3A-3B), (3) H1b-ADP (100 nM, 20 nM, 4 nM, 0.8 nM, FIG. 4A-4B) was added to culture medium and cells were harvested 4 hours later.

T1 sequence (Q96QP1 whole entry): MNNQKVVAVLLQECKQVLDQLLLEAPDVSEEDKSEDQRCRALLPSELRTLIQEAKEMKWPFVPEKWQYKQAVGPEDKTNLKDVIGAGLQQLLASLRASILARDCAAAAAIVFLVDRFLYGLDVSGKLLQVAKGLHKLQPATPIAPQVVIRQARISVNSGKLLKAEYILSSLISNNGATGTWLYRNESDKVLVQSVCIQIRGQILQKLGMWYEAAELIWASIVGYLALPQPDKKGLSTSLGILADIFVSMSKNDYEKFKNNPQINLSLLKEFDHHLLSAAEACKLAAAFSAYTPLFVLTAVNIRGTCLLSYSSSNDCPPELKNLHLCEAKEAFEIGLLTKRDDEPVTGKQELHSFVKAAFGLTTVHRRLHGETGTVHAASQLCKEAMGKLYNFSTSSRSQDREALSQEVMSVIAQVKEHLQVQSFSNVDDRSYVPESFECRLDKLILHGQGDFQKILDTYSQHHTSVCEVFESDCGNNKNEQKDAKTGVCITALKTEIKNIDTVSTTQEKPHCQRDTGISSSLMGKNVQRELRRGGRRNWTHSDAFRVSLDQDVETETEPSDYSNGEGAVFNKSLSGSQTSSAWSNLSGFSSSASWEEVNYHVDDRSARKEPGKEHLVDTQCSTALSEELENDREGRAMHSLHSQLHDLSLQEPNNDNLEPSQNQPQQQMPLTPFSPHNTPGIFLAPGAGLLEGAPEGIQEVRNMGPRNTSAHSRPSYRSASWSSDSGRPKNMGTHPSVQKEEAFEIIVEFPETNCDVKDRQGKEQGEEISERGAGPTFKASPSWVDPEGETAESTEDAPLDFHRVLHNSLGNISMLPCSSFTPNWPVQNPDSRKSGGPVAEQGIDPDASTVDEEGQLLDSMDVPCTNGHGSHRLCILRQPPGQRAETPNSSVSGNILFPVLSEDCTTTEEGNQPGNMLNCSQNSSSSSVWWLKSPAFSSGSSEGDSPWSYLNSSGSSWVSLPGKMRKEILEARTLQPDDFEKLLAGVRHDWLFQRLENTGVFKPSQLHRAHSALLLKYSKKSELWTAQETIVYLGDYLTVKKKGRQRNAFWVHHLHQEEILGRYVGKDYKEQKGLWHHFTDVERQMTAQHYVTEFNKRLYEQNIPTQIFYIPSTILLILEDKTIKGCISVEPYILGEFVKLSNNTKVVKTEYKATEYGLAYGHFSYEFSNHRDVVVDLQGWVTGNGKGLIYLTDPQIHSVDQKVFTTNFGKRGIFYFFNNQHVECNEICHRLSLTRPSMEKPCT

SMILES: CC(=O)OC[C@@H](OC(C)=O)[C@H]1O[C@@H](OP(=O)(O)OP(=O)(O)OC[C@H]2O[C@@H](n3cnc4c(N)ncnc43)[C@H](O)[C@@H]2F)[C@@H](OC(C)=O)[C@@H](OC(C)=O)[C@@H]1OC(C)=O [Compound 1, (2S,3S,4S,5R,6R)-2-(((((((2R,3S,4S,5R)-5-(6-amino-9H-purin-9-yl)-3-fluoro-4-hydroxytetrahydrofuran-2-yl)methoxy)(hydroxy)phosphoryl)oxy)(hydroxy)phosphoryl)oxy)-6-((R)-1,2-diacetoxyethyl)tetrahydro-2H-pyran-3,4,5-triyl triacetate]
tumor growth [1]: reduced tumor growth
dose that activates an inflammatory response in liver tissue [2]: 2 nmol
dose that activates an inflammatory response in lung tissue [2]: 200 nmol
IL8 secretion in HEK293 cells [3]: activate IL8 secretion

IL8 secretion in HEK293 cells [3]: activate IL8 secretion
SMILES: Nc1ncnc2c1ncn2[C@@H]1O[C@H](COP(=O)(O)OP(=O)(O)O[C@@H]2OC([C@H](O)CO)[C@@H](O)C(O)C2O)C(F)C1O (stereo in doubt) [Compound 2, Adenosine-3′-fluoro-5′-(D-glycero-β-D-mannoheptopyranosyl) diphosphate]
tumor growth [1]: reduced tumor growth

H1b-ADP hydrolysis in FBS ([5]; H1b-ADP pre-mixed with 1 mM Na3VO4 before incubation with FBS): effectively inhibited H1b-ADP hydrolysis
SMILES: [Na+].[Na+].[Na+].[O]=[V]([O-])([O-])[O-] [Na3VO4, sodium orthovanadate]
phosphatase activity on H1b-ADP [4]: the phosphatase activity was blocked by increasing amount of Na3VO4
restoration of H1b-ADP's activity in the cell based assay (IL8 secretion) [3]: could restore H1b-ADP's activity in the cell based assay

SMILES: O=P(O)(O)OC[C@@H](O)[C@H]1O[C@@H](OP(=O)(O)O)[C@@H](O)[C@@H](O)[C@@H]1O [HBP, D-glycero-β-D-manno-heptose 1,7-bisphosphate]
thermal shift of ALPK1 [6]: Neither HBP nor HMP-1bP were able to induce a thermal shift
phosphorylation of the ALPK1 substrate TIFA [7]: TIFA is phosphorylated only in the presence of H1b-ADP
autophosphorylation of ALPK1 [8]: not HBP or HMP-1bP induces ATP-dependent autophosphorylation
IL-8 mRNA expression [9]: increased in an ALPK1-dependent manner
TNFα mRNA expression [9]: increased in an ALPK1-dependent manner

SMILES: Nc1ncnc2c1ncn2[C@@H]1O[C@H](COP(=O)(O)O)[C@@H](O)[C@H]1O [AMP, reference compound]
phosphatase activity in serum (H1b-ADP hydrolysis) ([5]; pre-treatment of H1b-ADP with AMP before serum incubation): inhibited phosphatase activity and the inhibition was AMP dose-dependent
restoration of H1b-ADP's activity in the cell based assay (IL8 secretion) [3]: could restore H1b-ADP's activity in the cell based assay
